Test results from patent US20100184699A1, “Peptide Derived From Prostate-Related Protein As Cancer Vaccine Candidate For Prostate Cancer Patient Who Is Positive For Hla-A3 Super-Type Allele Molecule” (priority 2005, published 2010).
Where “and” joins values, the source holds several entries; their conditions need not be identical. Equal values may be shown once.

Key:
[1] = system: peptide-specific IgG in plasma of prostate cancer patients and healthy donors; test: Detection of peptide-specific IgG in plasma by ELISA; format: binding, human; conditions: for IgG reactive to peptide in plasma: 1:100-diluted plasma; for frequency of detection of peptide-reactive IgG: plasma of prostate cancer patients, compared within PSA, PAP or PSMA peptides
[2] = system: C1R-A11, -A31 or -A33 cells pulsed with corresponding peptide; test: Induction of peptide-specific CTLs from PBMCs (IFN-γ ELISA); format: cell-based, human
[3] = Prostate cancer patient 20, A33
[4] = Prostate cancer patient 10, A11
[5] = Prostate cancer patient 14, A33
[6] = Prostate cancer patient 13, A11
[7] = Prostate cancer patient 19, A33
[8] = Prostate cancer patient 16, A33

Row | Sequence | IgG reactive to peptide in plasma, Total (positive/tested) ([1]; Healthy donors) | IgG reactive to peptide in plasma [1, 3] | IgG reactive to peptide in plasma, Total (positive/tested) ([1]; Prostate cancer patients) | frequency of detection of peptide-reactive IgG [1] | Total (positive / tested) [2] | IgG reactive to peptide in plasma ([1]; Healthy donor 3, A31) | IgG reactive to peptide in plasma ([1]; Healthy donor 9, A11) | IgG reactive to peptide in plasma ([1]; Prostate cancer patient 4, A31) | IgG reactive to peptide in plasma ([1]; Prostate cancer patient 9, A11) | IgG reactive to peptide in plasma [1, 4] | IgG reactive to peptide in plasma [1, 5] | IgG reactive to peptide in plasma ([1]; Healthy donor 2, A3) | IgG reactive to peptide in plasma ([1]; Healthy donor 4, A31) | IgG reactive to peptide in plasma ([1]; Prostate cancer patient 7, A11) | IgG reactive to peptide in plasma [1, 6] | IgG reactive to peptide in plasma [1, 7] | IgG reactive to peptide in plasma [1, 8] | IgG reactive to peptide in plasma ([1]; Prostate cancer patient 3, A31) | IgG reactive to peptide in plasma ([1]; Prostate cancer patient 8, A11)
1 | KIVIARYGK (PSMA 199-207) [PSMA-derived peptide] | 0/9 | + (IgG reactive to a corresponding peptide was judged to be positive when a difference of the optical density (OD) in a 1:100-diluted plasma was more than 100) | 1/20 | less frequently | 0/13 and 4/9 |  |  |  |  |  |  |  |  |  |  |  |  |  | 
2 | TLVFRHGDR [PAP 39-47] | 2/9 | + (IgG reactive to a corresponding peptide was judged to be positive when a difference of the optical density (OD) in a 1:100-diluted plasma was more than 100) | 5/20 | more frequently | 3/13 and 7/9 | + (IgG reactive to a corresponding peptide was judged to be positive when a difference of the optical density (OD) in a 1:100-diluted plasma was more than 100) | + (IgG reactive to a corresponding peptide was judged to be positive when a difference of the optical density (OD) in a 1:100-diluted plasma was more than 100) | + (IgG reactive to a corresponding peptide was judged to be positive when a difference of the optical density (OD) in a 1:100-diluted plasma was more than 100) | + (IgG reactive to a corresponding peptide was judged to be positive when a difference of the optical density (OD) in a 1:100-diluted plasma was more than 100) | + (IgG reactive to a corresponding peptide was judged to be positive when a difference of the optical density (OD) in a 1:100-diluted plasma was more than 100) | + (IgG reactive to a corresponding peptide was judged to be positive when a difference of the optical density (OD) in a 1:100-diluted plasma was more than 100) |  |  |  |  |  |  |  | 
3 | LYDMSLLKNR (PSA 100-109) [PSA-derived peptide] | 4/9 |  | 7/20 | more frequently | 1/13 and 3/9 | + (IgG reactive to a corresponding peptide was judged to be positive when a difference of the optical density (OD) in a 1:100-diluted plasma was more than 100) | + (IgG reactive to a corresponding peptide was judged to be positive when a difference of the optical density (OD) in a 1:100-diluted plasma was more than 100) | + (IgG reactive to a corresponding peptide was judged to be positive when a difference of the optical density (OD) in a 1:100-diluted plasma was more than 100) | + (IgG reactive to a corresponding peptide was judged to be positive when a difference of the optical density (OD) in a 1:100-diluted plasma was more than 100) | + (IgG reactive to a corresponding peptide was judged to be positive when a difference of the optical density (OD) in a 1:100-diluted plasma was more than 100) | + (IgG reactive to a corresponding peptide was judged to be positive when a difference of the optical density (OD) in a 1:100-diluted plasma was more than 100) | + (IgG reactive to a corresponding peptide was judged to be positive when a difference of the optical density (OD) in a 1:100-diluted plasma was more than 100) | + (IgG reactive to a corresponding peptide was judged to be positive when a difference of the optical density (OD) in a 1:100-diluted plasma was more than 100) | + (IgG reactive to a corresponding peptide was judged to be positive when a difference of the optical density (OD) in a 1:100-diluted plasma was more than 100) | + (IgG reactive to a corresponding peptide was judged to be positive when a difference of the optical density (OD) in a 1:100-diluted plasma was more than 100) | + (IgG reactive to a corresponding peptide was judged to be positive when a difference of the optical density (OD) in a 1:100-diluted plasma was more than 100) |  |  | 
4 | VLTAAHCIR [PSA 60-68] | 1/9 |  | 3/20 | more frequently | 1/13 and 3/9 |  |  | + (IgG reactive to a corresponding peptide was judged to be positive when a difference of the optical density (OD) in a 1:100-diluted plasma was more than 100) |  | + (IgG reactive to a corresponding peptide was judged to be positive when a difference of the optical density (OD) in a 1:100-diluted plasma was more than 100) |  |  | + (IgG reactive to a corresponding peptide was judged to be positive when a difference of the optical density (OD) in a 1:100-diluted plasma was more than 100) |  |  |  | + (IgG reactive to a corresponding peptide was judged to be positive when a difference of the optical density (OD) in a 1:100-diluted plasma was more than 100) |  | 
5 | TLKSEEFQKR [PAP 171-180] | 0/9 |  | 4/20 | more frequently | 0/13 and 8/9 |  |  |  | + (IgG reactive to a corresponding peptide was judged to be positive when a difference of the optical density (OD) in a 1:100-diluted plasma was more than 100) | + (IgG reactive to a corresponding peptide was judged to be positive when a difference of the optical density (OD) in a 1:100-diluted plasma was more than 100) | + (IgG reactive to a corresponding peptide was judged to be positive when a difference of the optical density (OD) in a 1:100-diluted plasma was more than 100) |  |  |  | + (IgG reactive to a corresponding peptide was judged to be positive when a difference of the optical density (OD) in a 1:100-diluted plasma was more than 100) |  |  |  | 
6 | SLLKNRFLR (PSA 104-112) [PSA-derived peptide] | 0/9 |  | 5/20 | more frequently | 3/13 and 1/9 |  |  |  | + (IgG reactive to a corresponding peptide was judged to be positive when a difference of the optical density (OD) in a 1:100-diluted plasma was more than 100) | + (IgG reactive to a corresponding peptide was judged to be positive when a difference of the optical density (OD) in a 1:100-diluted plasma was more than 100) |  |  |  |  |  | + (IgG reactive to a corresponding peptide was judged to be positive when a difference of the optical density (OD) in a 1:100-diluted plasma was more than 100) | + (IgG reactive to a corresponding peptide was judged to be positive when a difference of the optical density (OD) in a 1:100-diluted plasma was more than 100) | + (IgG reactive to a corresponding peptide was judged to be positive when a difference of the optical density (OD) in a 1:100-diluted plasma was more than 100) | + (IgG reactive to a corresponding peptide was judged to be positive when a difference of the optical density (OD) in a 1:100-diluted plasma was more than 100)
